Experimental findings from article PMC9942557, “Bolaamphiphile Analogues of 12-bis-THA Cl2 Are Potent Antimicrobial Therapeutics with Distinct Mechanisms of Action against Bacterial, Mycobacterial, and Fungal Pathogens” (mSphere, 2022) are described below.

The test system of assay [1] is Pseudomonas aeruginosa RP73. Briefly: In vitro pharmacodynamic (PD) assay. The settings on record: P. aeruginosa RP73; combination 2:1 (wt/wt).
Method: In vitro PD assays were performed with Pseudomonas aeruginosa RP73 cultured in Roswell Park Memorial Institute 1640 medium (RPMI) supplemented with 5% Mueller-Hinton broth (MHB) ([35]). Bacteria were cultured overnight in 10 mL of RPMI–5% MHB at 37°C and diluted just prior to plate inoculation to an OD600 of 0.002. Stock solutions of colistin or tobramycin were prepared in sterile MilliQ water at a concentration of 200× MIC. Octa-bola was prepared in methanol at 2,000× MIC and diluted in water to 200× MIC. A dilution series was made in the top row of a polypropylene 96-well plate from 200× MIC to 0.2× MIC in a volume of 100 μL, to which 100 μL of the bacterial suspension was added to have a total of 1 × 10^6 log-phase CFU in 200 μL. The first time zero sample was taken <30 s after addition of bacteria to the plate, with further samples taken at appropriate intervals thereafter. […] Fifteen microliters was removed from each well, diluted 1:1,000 in phosphate-buffered saline, and plated onto RPMI–5% MH agar plates. The plates were incubated at 37°C overnight for CFU counting.
CFU data were log10 transformed, and the bacterial net growth rate was determined from the increase or decrease in CFU during the time of exposure to the antibiotics as the coefficient of a linear regression of log10 CFU as a function of time. The intercept of the regression was fixed by forcing the regression lines through the first CFU measurement (0 min) at a given antimicrobial concentration. The pharmacodynamic function according to Regoes et al. ([36]) describes the relationship between bacterial net growth rate (ψ) and the concentration of an antimicrobial (a): ψmax − ([ψmax − ψmin][a/zMIC])^κ/([a/zMIC]^κ − [ψmin/ψmax]). Fitting this function to the net bacterial growth rates in OriginPro 2020 (OriginLab Corporation, Northampton, MA) generates the parameters ψmin and ψmax (minimum and maximum growth rates, respectively), zMIC (the pharmacodynamic MIC), and κ (a measure of the cooperativity). […]
In assay [2] the test system is P. aeruginosa NCTC 13437. Briefly: Fixed-concentration (0.25× MIC bolalipid) synergy broth microdilution. The settings on record: P. aeruginosa NCTC 13437. The format is cell-based, Pseudomonas aeruginosa.
The subject of assay [3] is P. aeruginosa PAO1. The description is as above. The format is cell-based, Pseudomonas aeruginosa. The settings on record: P. aeruginosa PAO1.
Setting [4] is: in the presence of 0.25× MIC Octa-C10 (Table S1).
The mark [5] stands for this setting: in the presence of 0.25× MIC Octa-bola (Table S1).

With Colistin, the “bactericidal activity (minimum growth rate, ψmin)” value in assay [1] is reported as “weakly bactericidal”. For the same substance, the MIC of antibiotic in assay [2] (No bola (Table S1)) is 0.25 to 0.5 µg/mL; in assay [2] (setting [4]), 0.125 to 0.25 µg/mL; in assay [2] (setting [5]) it was 0.125 µg/mL; in assay [3] (No bola (Table S1)), 0.125 to 0.25 µg/mL; in assay [3] (setting [4]), 0.06 µg/mL; in assay [3] (setting [5]), 0.06 µg/mL.
